We go through seven compounds from patent publication US20250122203A1, “ADENOSINE RECEPTOR ANTAGONISTS” (Crossignal Therapeutics, Inc., priority 2021, published 2025).

Experiment [1] has as its target human adenosine A2a receptor (Homo sapiens, UniProt P29274). Kind of experiment: Adenosine A2a Receptor Whole Cell Cyclic AMP Assay. Conditions: HEK293 cells stably expressing human A2a; for A2a @ 100 μM Adenosine (cAMP IC50): in the presence of 100 μM adenosine; for A2a @ 1 μM Adenosine (cAMP IC50): in the presence of 1 μM adenosine.
Experiment [2] concerns the target T1, human adenosine A2b receptor (Homo sapiens, UniProt P29275).
T1 sequence (P29275 1-332): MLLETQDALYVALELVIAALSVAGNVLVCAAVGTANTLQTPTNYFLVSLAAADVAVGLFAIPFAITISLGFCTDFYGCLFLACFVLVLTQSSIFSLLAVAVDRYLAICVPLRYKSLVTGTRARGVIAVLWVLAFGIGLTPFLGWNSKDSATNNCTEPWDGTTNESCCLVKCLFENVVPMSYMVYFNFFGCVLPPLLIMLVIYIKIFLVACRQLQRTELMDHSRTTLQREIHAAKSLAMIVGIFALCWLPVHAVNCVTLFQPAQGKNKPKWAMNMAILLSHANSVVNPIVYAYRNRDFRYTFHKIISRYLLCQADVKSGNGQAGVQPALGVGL
As to the kind of experiment: Adenosine A2b Receptor Whole Cell Cyclic AMP Assay. The following applies: HEK293 cells transfected with human A2b; in the presence of 10 μM adenosine.

Chain of human adenosine A2a receptor (P29274 whole entry): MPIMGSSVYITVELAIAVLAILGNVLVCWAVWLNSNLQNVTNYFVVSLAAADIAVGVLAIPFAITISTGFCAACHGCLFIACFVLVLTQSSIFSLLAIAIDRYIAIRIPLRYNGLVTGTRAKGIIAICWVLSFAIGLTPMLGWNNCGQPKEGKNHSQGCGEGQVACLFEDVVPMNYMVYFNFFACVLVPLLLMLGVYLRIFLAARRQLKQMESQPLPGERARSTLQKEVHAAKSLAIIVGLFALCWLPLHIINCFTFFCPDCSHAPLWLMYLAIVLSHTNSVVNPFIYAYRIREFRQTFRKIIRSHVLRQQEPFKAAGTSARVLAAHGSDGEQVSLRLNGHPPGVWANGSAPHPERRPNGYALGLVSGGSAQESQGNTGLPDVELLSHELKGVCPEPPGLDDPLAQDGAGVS

Take `Cc1ccnc2ccc(-c3c(-c4ccc(F)cc4)nc(N)c4nnnn34)cc12` [1-6, 6-(4-fluorophenyl)-5-(4-methylquinolin-6-yl)tetrazolo[1,5-a]pyrazin-8-amine]: the “A2a @ 100 μM Adenosine (cAMP IC50)” value in experiment [1] is on record as “++ (partial)”.

Take `Nc1nc(-c2ccc(F)cc2)c(-c2ccc3ncoc3c2)n2nnnc12` [1-10, 5-(benzo[d]oxazol-6-yl)-6-(4-fluorophenyl)tetrazolo[1,5-a]pyrazin-8-amine]: in experiment [1], the “A2a @ 100 μM Adenosine (cAMP IC50)” value is on record as “+ (partial)”.

As for `Nc1nc(-c2ccc(F)cc2)c(-c2ccc3ncc(Cl)n3c2)n2nnnc12` [1-23, 5-(3-chloroimidazo[1,2-a]pyridin-6-yl)-6-(4-fluorophenyl)tetrazolo[1,5-a]pyrazin-8-amine], the “A2a @ 100 μM Adenosine (cAMP IC50)” value in experiment [1] is “++ (partial)”.

Consider `Cc1cc(-c2c(-c3ccc(F)cc3)nc(N)n3nnnc23)cc(C)n1` [1-28, 8-(2,6-dimethylpyridin-4-yl)-7-(4-fluorophenyl)tetrazolo[1,5-c]pyrimidin-5-amine], for which the “A2b @ 10 μM Adenosine (cAMP IC50)” value in experiment [2] is “+ (partial)”.

As for `Cc1ccnc2ccc(-c3c(-c4ccc(Cl)cc4)nc(N)c4nnnn34)cc12` [1-39, 6-(4-chlorophenyl)-5-(4-methylquinolin-6-yl)tetrazolo[1,5-a]pyrazin-8-amine], the “A2a @ 1 μM Adenosine (cAMP IC50)” value in experiment [1] is “+++ (partial)”.

Turning to `Cc1ccnc2ccc(-c3c(-c4ccc(C(=O)N(C)C)cc4)nc(N)c4nnnn34)cc12` [1-40, 4-(8-amino-5-(4-methylquinolin-6-yl)tetrazolo[1,5-a]pyrazin-6-yl)-N,N-dimethylbenzamide], the “A2a @ 1 μM Adenosine (cAMP IC50)” value in experiment [1] is “+++ (partial)”.

On to `Cc1ccnc2ccc(-c3c(-c4cccc(Cl)c4)nc(N)c4nnnn34)cc12` [1-50, 6-(3-chlorophenyl)-5-(4-methylquinolin-6-yl)tetrazolo[1,5-a]pyrazin-8-amine], for which the “A2a @ 1 μM Adenosine (cAMP IC50)” value in experiment [1] is reported as “+++ (partial)”.
